Data as given in PMC9139979, “Features of ZED1227: The First-In-Class Tissue Transglutaminase Inhibitor Undergoing Clinical Evaluation for the Treatment of Celiac Disease” (Cells, 2022).
Square brackets hold non-standard residues; d marks the D form. Peptide text beside a SMILES is read from it. * marks the point of attachment. Nle(5E-ene,6-CO2Et) = CCOC(=O)/C=C/CC[C@H](N)C(=O)O; DON = [N-]=[N+]=CC(=O)CC[C@H](N)C(=O)O; Cbz = O=C(OCc1ccccc1)*

Tests used:
[1] = target: T1, hTG2 (Homo sapiens, UniProt P21980); assay: Fluorescent transamidation assay (DCC-assay), hTG2; format: biochemical; conditions: for IC50: recombinant human TG2, transamidation assay, apparent IC50 of irreversible inhibitor, read-out: App. IC50 hTG2; for Fold less potent compared to ZED1227 (hTG2): same transamidation assay
T1 construct: purchased Zedira T022
T1 sequence (P21980 1-687): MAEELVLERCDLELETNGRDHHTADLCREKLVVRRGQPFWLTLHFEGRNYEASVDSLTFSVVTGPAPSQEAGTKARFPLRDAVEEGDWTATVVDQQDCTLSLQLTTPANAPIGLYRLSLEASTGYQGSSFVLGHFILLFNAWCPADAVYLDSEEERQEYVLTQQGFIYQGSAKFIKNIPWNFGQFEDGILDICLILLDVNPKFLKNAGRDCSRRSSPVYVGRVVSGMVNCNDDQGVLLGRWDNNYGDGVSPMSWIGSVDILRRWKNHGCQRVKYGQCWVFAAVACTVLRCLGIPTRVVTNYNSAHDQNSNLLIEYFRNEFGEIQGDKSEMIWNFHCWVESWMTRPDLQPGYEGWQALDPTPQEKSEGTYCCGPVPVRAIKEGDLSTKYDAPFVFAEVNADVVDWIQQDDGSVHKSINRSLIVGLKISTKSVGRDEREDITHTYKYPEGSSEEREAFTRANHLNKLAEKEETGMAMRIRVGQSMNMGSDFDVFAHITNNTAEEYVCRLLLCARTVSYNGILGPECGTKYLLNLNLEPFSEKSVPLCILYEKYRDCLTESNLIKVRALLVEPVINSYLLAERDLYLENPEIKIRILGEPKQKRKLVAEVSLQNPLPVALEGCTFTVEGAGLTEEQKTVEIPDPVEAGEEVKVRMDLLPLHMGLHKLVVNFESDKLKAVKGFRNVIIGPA
Method: Inhibition data were determined using the fluorescent transamidation assay (dansylcadaverine incorporation into glutamine-donor substrate N,N-dimethyl casein, DCC-assay). Briefly, to 15 μL of ZED1227 solution (dissolved and serial diluted in 2% (v/v) DMSO/assay buffer), 285 μL assay buffer [47.5 mM tris(hydroxymethyl)aminomethane, 9.5 mM CaCl2, 9.5 mM glutathione, 2.4% (v/v) glycerol, 190 mM NaCl, pH 8.0] containing dansylcadaverine (15.9 μM), N,N-dimethyl casein (3.8 μM) and the indicated recombinant transglutaminase enzyme [0.95 μg/mL hTG1 (T035), 0.81 μg/mL hTG2 (T022), 0.83 μg/mL hTG6 (T021), all from Zedira] were added, mixed and the kinetic measurement started immediately. In the case of hFXIII-A2 (0.83 μg/mL, T027, Zedira), the assay buffer contained human α-thrombin (5.2 × 10^−3 U/μL, T056, Zedira). The mixture was incubated for 20 min at room temperature to activate FXIII. In the case of hTG3a (0.81 μg/mL, T013, Zedira), full enzymatic activity was obtained by incubation for 80 min at 37 °C in assay buffer before addition of the inhibitor and start of the kinetics.
Fluorescence emission was continuously monitored for 30 min at λem = 500 nm (λex = 330 nm) and 37 °C using a CLARIOstar fluorescence plate reader (BMG Labtech, Ortenberg, Germany). All measurements were performed in triplicate. The respective IC50 (and IC90 for TG2) values were calculated by non-linear regression using the MARS software package (BMG Labtech). An irreversible-acting inhibitor, such as ZED1227, should, correctly, be characterized by the second-order rate constant k2nd, as detailed by Keillor [46]. However, such data are rather abstract and difficult to comprehend.
To facilitate comparability during lead structure optimization and to roughly estimate concentrations needed at the target site, the apparent IC50 values (calculated by four-parameter non-linear fit by MARS software) for irreversible inhibitors are more instructive and are therefore reported. Further, we report the potency of commercially available reference inhibitors Z006 (“Z-DON”), Z013 (ZED754), and T101 (all Zedira). To gain deeper mechanistic insight, we discuss the second-order rate constants (k2nd) published for Z006 and ZED754 in relation to their respective IC50 values.

[2] = target: TG2; design: method as in PMID 32045569; conditions: TG2 catalyzed hydrolysis of Z-Glu(HMC)-Gly-OH at pH 6.5; cited from earlier work

SMILES	IC50 [1] [µM]	Fold less potent compared to ZED1227 (hTG2) [1]	Ki [2] [µM]	k2nd (second-order rate constant) [2]
CC(=O)CSc1n(C)c(C)c(C)[n+]1C.[Cl-] [T101]	1.78	33 fold		
COC(=O)[C@H](CC(C)C)NC(=O)[C@@H]1CCCN1C(=O)[C@@H](NC(=O)[C@H](CCC(=O)C=[N+]=[N-])NC(=O)OCc1ccccc1)C(C)C [Z006, Z-DON-Val-Pro-Leu-OMe] (Cbz-[DON]VPL-OMe)	0.07		0.096	191,000 M^−1s^−1
CCOC(=O)/C=C/CC[C@H](NC(=O)OCc1ccccc1)C(=O)N[C@@H](CCC(N)=O)C(=O)N1CCC[C@H]1C(=O)N[C@@H](CC(C)C)C(=O)OC [ZED754] (Cbz-[Nle(5E-ene,6-CO2Et)]QPL-OMe)	0.182	about 3.5 fold	0.45	51,500 M^−1s^−1
